Reference: PMC2229521 (The Journal of General Physiology, 2002)

Legend:
[1] = molecular target: neuronal nAChR ACh recognition sites; settings: ref Perry et al., 1988; Hunter et al., 1989; cited from earlier work
[2] = molecular target: human adult nAChRs expressed in HEK 293 cells (Homo sapiens, UniProt P02708+P11230+Q04844+Q07001); assay type: binding; settings: P = 0.64 by one-way ANOVA
Chain of human adult nAChRs expressed in HEK 293 cells (P02708 21-457): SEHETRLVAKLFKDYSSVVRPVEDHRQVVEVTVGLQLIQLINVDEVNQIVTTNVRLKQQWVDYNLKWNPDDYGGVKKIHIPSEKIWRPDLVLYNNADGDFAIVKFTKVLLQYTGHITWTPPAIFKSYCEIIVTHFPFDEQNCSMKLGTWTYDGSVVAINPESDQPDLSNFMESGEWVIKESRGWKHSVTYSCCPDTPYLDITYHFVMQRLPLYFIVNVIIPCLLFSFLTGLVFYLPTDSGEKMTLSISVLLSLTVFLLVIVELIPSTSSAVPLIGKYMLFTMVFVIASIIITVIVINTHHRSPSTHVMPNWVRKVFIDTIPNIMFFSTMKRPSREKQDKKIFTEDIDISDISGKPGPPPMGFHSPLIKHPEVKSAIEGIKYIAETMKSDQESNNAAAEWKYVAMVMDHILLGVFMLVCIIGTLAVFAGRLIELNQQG
Chain of human adult nAChRs expressed in HEK 293 cells (P11230 24-501): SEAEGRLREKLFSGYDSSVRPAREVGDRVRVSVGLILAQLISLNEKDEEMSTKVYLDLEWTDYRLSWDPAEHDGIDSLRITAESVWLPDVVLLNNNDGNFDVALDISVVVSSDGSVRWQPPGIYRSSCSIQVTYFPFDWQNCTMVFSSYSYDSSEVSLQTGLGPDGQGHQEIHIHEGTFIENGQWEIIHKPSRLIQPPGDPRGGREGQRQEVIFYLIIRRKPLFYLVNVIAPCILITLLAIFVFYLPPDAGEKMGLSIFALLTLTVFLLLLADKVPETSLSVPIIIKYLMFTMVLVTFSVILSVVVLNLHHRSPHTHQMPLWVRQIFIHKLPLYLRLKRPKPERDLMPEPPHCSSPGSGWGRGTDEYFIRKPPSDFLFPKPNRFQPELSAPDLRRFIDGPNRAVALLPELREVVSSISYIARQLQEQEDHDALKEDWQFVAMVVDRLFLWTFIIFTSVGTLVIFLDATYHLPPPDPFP
Chain of human adult nAChRs expressed in HEK 293 cells (Q07001 22-517): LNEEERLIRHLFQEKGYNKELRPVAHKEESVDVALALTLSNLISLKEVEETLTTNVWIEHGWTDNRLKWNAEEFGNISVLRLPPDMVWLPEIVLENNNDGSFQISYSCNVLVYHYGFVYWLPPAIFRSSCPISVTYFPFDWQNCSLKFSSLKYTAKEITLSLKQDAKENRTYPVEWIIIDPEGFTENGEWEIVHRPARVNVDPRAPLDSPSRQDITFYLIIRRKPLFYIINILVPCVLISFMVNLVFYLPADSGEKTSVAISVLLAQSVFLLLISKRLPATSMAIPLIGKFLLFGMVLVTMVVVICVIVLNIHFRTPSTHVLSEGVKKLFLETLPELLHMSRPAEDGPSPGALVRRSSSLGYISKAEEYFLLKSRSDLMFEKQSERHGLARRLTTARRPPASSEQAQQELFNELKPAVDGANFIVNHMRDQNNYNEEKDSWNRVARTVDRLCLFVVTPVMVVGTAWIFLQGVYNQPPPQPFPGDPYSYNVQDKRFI
Chain of human adult nAChRs expressed in HEK 293 cells (Q04844 21-493): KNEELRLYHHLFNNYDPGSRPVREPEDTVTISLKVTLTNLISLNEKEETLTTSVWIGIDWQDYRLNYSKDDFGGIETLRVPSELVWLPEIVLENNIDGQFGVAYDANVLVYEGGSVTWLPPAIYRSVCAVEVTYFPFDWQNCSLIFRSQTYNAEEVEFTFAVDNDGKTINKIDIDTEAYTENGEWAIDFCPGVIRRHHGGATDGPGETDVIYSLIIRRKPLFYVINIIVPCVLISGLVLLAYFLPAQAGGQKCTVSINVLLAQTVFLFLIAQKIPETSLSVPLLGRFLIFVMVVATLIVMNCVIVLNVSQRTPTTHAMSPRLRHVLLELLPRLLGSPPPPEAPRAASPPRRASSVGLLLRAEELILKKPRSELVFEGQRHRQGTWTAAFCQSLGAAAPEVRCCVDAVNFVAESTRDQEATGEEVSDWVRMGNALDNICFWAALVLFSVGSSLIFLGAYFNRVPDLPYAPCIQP

Nc1c2c(nc3ccccc13)CCCC2 [tacrine, 9-amino-1,2,3,4-tetrahydroacridine]
Kd values, competitive binding [1]: low micromolar range

C[N+](C)(C)CCOC(N)=O.[Cl-] [carbamylcholine]
difference in log IC 50 values in the presence of varying concentrations of tacrine [2]: No difference
